Measured values as given in the Kinase Knowledgebase extract (Sharma et al. 2016).
pIC50: −log10 of the molar value.

How the values were obtained:
CDK2 (human) = CDK2 (human) (UniProt P24941); assay: Enzyme Assay; conditions: for activity: 10.0 µM
MAPK14 (human) = MAPK14 (human) (UniProt Q16539); assay: Enzyme Assay; conditions: for activity: 10.0 µM
PIK3CA (human) = PIK3CA (human) (UniProt P42336); assay: Enzyme Assay; conditions: 10.0 µM
[1] = test system: PIK3CA (human), P42336 [C420R]; assay: Enzyme Assay; conditions: 10.0 µM
[2] = test system: PIK3CA (human), P42336 [E542K]; assay: Enzyme Assay; conditions: 10.0 µM
Chain of PIK3CA (human), P42336 [E542K] (P42336 whole entry E542K, looked up): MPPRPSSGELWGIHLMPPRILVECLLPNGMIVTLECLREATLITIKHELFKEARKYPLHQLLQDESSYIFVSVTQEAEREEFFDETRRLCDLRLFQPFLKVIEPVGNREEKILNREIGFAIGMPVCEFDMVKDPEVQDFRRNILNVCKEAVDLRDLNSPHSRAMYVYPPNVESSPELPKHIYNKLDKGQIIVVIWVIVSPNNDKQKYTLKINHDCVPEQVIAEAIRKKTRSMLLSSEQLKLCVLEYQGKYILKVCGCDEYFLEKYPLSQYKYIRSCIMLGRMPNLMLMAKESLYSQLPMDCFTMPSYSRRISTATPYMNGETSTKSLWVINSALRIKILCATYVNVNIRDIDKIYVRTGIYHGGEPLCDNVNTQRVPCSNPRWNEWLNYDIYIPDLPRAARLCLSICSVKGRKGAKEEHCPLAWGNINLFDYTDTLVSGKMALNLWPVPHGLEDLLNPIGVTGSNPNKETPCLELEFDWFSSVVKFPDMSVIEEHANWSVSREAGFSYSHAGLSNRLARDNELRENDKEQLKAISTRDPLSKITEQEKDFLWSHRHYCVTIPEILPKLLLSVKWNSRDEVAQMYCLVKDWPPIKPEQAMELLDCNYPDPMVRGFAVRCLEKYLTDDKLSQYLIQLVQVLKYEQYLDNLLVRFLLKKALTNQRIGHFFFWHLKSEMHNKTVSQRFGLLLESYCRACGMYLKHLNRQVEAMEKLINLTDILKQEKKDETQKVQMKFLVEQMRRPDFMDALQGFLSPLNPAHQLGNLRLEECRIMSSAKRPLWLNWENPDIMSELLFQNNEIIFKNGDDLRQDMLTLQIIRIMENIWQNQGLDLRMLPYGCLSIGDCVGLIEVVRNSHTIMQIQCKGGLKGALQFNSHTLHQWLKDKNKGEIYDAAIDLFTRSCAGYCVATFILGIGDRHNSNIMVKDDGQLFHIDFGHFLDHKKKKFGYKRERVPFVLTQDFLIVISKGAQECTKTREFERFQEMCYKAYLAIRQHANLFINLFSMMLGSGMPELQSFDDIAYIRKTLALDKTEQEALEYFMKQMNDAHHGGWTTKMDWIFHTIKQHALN

[3] = test system: PIK3CA (human), P42336 [E545A]; assay: Enzyme Assay; conditions: 10.0 µM
[4] = test system: PIK3CA (human), P42336 [E545K]; assay: Enzyme Assay; conditions: 10.0 µM
[5] = test system: PIK3CA (human), P42336 [H1047L]; assay: Enzyme Assay; conditions: 10.0 µM
Chain of PIK3CA (human), P42336 [H1047L] (P42336 whole entry H1047L, looked up): as the sequence (P42336 whole entry E542K, looked up) above, with K542E, H1047L counted along it

[6] = test system: PIK3CA (human), P42336 [H1047Y]; assay: Enzyme Assay; conditions: 10.0 µM
[7] = test system: PIK3CA (human), P42336 [I800L]; assay: Enzyme Assay; conditions: 10.0 µM
[8] = test system: PIK3CA (human), P42336 [M1043I]; assay: Enzyme Assay; conditions: 10.0 µM
Chain of PIK3CA (human), P42336 [M1043I] (P42336 whole entry M1043I, looked up): as the sequence (P42336 whole entry E542K, looked up) above, with K542E, M1043I counted along it

[9] = test system: PIK3CA (human), P42336 [Q546K]; assay: Enzyme Assay; conditions: 10.0 µM
PIK3CB (Human) = PIK3CB (Human) (UniProt P42338); assay: Enzyme Assay; conditions: 10.0 µM
Chain of PIK3CB (Human) (P42338 whole entry, looked up): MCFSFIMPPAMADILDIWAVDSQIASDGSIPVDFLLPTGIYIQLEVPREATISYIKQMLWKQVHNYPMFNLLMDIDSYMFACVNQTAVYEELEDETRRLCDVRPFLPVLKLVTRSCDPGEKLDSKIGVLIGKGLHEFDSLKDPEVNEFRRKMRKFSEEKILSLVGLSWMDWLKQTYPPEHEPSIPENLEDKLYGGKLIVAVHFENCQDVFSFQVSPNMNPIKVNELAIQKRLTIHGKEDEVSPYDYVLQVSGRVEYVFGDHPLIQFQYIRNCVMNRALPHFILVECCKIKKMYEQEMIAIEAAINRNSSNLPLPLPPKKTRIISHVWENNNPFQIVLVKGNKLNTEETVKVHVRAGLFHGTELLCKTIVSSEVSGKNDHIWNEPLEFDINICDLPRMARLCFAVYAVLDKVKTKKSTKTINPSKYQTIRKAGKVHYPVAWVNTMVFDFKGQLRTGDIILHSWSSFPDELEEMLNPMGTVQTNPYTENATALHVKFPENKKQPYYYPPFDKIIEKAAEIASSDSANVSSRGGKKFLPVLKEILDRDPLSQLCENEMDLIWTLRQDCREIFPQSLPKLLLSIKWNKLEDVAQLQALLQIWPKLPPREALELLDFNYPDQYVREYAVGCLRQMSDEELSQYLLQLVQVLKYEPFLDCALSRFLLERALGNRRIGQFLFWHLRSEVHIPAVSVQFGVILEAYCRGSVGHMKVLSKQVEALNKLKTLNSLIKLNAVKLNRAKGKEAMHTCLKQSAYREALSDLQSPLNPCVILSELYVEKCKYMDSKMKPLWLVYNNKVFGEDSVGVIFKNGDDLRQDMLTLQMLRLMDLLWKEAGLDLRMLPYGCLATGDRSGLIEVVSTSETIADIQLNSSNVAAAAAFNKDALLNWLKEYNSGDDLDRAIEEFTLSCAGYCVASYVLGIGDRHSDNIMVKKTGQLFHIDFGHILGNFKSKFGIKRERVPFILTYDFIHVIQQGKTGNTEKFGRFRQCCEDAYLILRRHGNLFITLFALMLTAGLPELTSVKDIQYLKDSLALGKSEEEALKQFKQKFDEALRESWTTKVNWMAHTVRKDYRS

PIK3CD (Human) = PIK3CD (Human) (UniProt O00329); assay: Enzyme Assay; conditions: 10.0 µM
PIK3CG (human) = PIK3CG (human) (UniProt P48736); assay: Enzyme Assay; conditions: 10.0 µM
ROCK2 (human) = ROCK2 (human) (UniProt O75116); assay: Enzyme Assay; conditions: 10.0 µM
EGFR (human) = EGFR (human) (UniProt P00533); conditions: for activity: 10.0 µM
[10] = test system: EGFR (human), P00533 [E746-A750del]; conditions: 10.0 µM
[11] = test system: EGFR (human), P00533 [G719C]; conditions: 10.0 µM
[12] = test system: EGFR (human), P00533 [G719S]; conditions: 10.0 µM
[13] = test system: EGFR (human), P00533 [L747-E749del, A750P]; conditions: 10.0 µM
[14] = test system: EGFR (human), P00533 [L747-S752del, P753S]; conditions: 10.0 µM
[15] = test system: EGFR (human), P00533 [L747-T751del,Sins]; conditions: 10.0 µM
[16] = test system: EGFR (human), P00533 [L858R]; conditions: 10.0 µM
[17] = test system: EGFR (Human), P00533 [T790M/L858R]; conditions: 10.0 µM
[18] = test system: EGFR (human), P00533 [L861Q]; conditions: 10.0 µM
[19] = test system: EGFR (human), P00533 [S752-I759del]; conditions: 10.0 µM
[20] = test system: EGFR (human), P00533 [T790M]; conditions: 10.0 µM

Chain of MAPK14 (human) (Q16539 whole entry, looked up): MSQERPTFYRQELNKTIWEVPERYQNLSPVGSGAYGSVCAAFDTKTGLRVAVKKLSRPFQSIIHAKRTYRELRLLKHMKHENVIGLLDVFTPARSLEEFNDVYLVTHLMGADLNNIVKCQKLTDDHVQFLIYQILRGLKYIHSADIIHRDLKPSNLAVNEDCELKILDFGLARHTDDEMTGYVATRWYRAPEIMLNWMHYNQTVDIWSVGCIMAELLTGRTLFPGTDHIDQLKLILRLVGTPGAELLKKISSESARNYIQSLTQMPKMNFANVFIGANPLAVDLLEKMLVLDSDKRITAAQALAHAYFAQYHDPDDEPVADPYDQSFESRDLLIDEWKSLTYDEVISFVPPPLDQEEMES

Row | pIC50 (MAPK14 (human)) | pIC50 (EGFR (human)) | pIC50 (CDK2 (human)) | SMILES | activity (CDK2 (human)) | activity (MAPK14 (human)) | activity (PIK3CA (human)) | activity [1] | activity [2] | activity [3] | activity [4] | activity [5] | activity [6] | activity [7] | activity [8] | activity [9] | activity (PIK3CB (Human)) | activity (PIK3CD (Human)) | activity (PIK3CG (human)) | activity (ROCK2 (human)) | activity (EGFR (human)) | activity [10] | activity [11] | activity [12] | activity [13] | activity [14] | activity [15] | activity [16] | activity [17] | activity [18] | activity [19] | activity [20]
1 |  |  |  | COc1cc2c(Nc3ccc(NC(=O)c4ccccc4)cc3)ncnc2cc1OCCCN1CCOCC1 | 82% | 100% | 100% | 68% | 100% | 19% | 98% | 99% | 24% | 100% | 99% | 17% | 81% | 100% | 100% | 34% | 0% | 36% | 0% | 0% | 22% | 41% | 26% | 8% | 85% | 6% | 14% | 42%
2 | 7.28 |  |  | Cc1csc(-c2nnc(Nc3ccc(Oc4ncccc4-c4ccnc(N)n4)cc3)c3ccccc23)c1 |  |  |  |  |  |  |  |  |  |  |  |  |  |  |  |  |  |  |  |  |  |  |  |  |  |  |  | 
3 |  |  |  | Cc1ccc(NC(=O)c2cccc(C(C)(C)C#N)c2)cc1Nc1ccc2ncn(C)c(=O)c2c1 | 100% | 0% | 100% | 100% | 100% | 89% | 100% | 100% | 100% | 100% | 89% | 88% | 100% | 99% | 99% | 80% | 37% | 15% | 49% | 37% | 11% | 19% | 14% | 48% | 99% | 34% | 17% | 79%
4 |  | < 5.00 |  | Cc1ccc(C(=O)Nc2cccc(C(F)(F)F)c2)cc1Nc1nc(-c2cccnc2)nc2c1cnn2C |  |  |  |  |  |  |  |  |  |  |  |  |  |  |  |  |  |  |  |  |  |  |  |  |  |  |  | 
5 |  | < 5.00 | < 5.00 | O=C(Nc1ccc(OC(F)(F)F)cc1)c1sccc1NCc1ccnc2ccccc12 |  |  |  |  |  |  |  |  |  |  |  |  |  |  |  |  |  |  |  |  |  |  |  |  |  |  |  | 
